The structures appear in SMILES notation. Calls of active or inactive are those of the source. How the calls were made is not given here.

A short description of experiment [1]: growth inhibition of yeast vps1Δ mutant, dose response, S. cerevisiae, background strain comparison (AID 790). Conditions: S. cerevisiae vps1Δ mutant growth inhibition; measured here: background strain growth inhibition.
Experiment [2] has as its system S. cerevisiae vps1Δ mutant growth inhibition. The experiment is described as above.

As for `O=C(O)Cn1c(SCCOc2ccccc2F)nc2ccccc21`, the values for the IC50 in experiment [1] and in experiment [2] were over 10 µM and > 10 µM (inactive), respectively.
Taken in the same sequence, the figures for `CCn1c(=O)[nH]c2cc(C(=O)N3CCN(c4ccccc4)CC3)ccc2c1=O` were over 10 µM and > 10 µM (inactive).
Taken in the same sequence, the figures for `Nc1c(C(=O)OCC2CCCO2)c2nc3ccccc3nc2n1-c1ccc2c(c1)OCCO2` (configuration not stated) were over 10 µM and > 10 µM (inactive).
Taken in the same sequence, the figures for `COc1cccc(NC(=O)c2ccc(CN3CCN(c4ccccc4)CC3)cc2)c1` were over 10 µM and > 10 µM (inactive).
For `Cc1ccc(C(C)C)c(OCCCN2CC(C)OC(C)C2)c1` (configuration not stated), the IC50 was over 10 µM in experiment [1] and > 10 µM (inactive) in experiment [2].
As for `COc1ccc(-c2cc(N)n(S(=O)(=O)c3c(F)c(F)c(F)c(F)c3F)n2)cc1OC`, the IC50 in experiment [1] is 1.08 µM; in experiment [2], 2.29 µM (inactive).
Turning to `O=C(OCn1ncc(Br)c(Br)c1=O)c1ccc(F)cc1`, the IC50 was 5.38 µM in experiment [1] and 3.91 µM in experiment [2].
Taken in the same sequence, the figures for `N=c1nc(N)nc2n1NC(c1ccc(F)cc1)=CS2` were over 10 µM and > 10 µM (inactive).
Taken in the same sequence, the figures for `Cc1cc(C)nc(NC(=O)CSc2nn(C)c(=S)s2)n1` were over 10 µM and > 10 µM (inactive).
Taken in the same sequence, the figures for `CSc1ncccc1C(=O)OCC(=O)N1CCOCC1` were over 10 µM and > 10 µM (inactive).
As for `CCOc1ccc(NC(=O)C/C(N)=N/O)cc1`, the results for the IC50 in experiment [1] and in experiment [2] were over 10 µM and > 10 µM (inactive), respectively.
The corresponding values for `O=C(C1COc2ccccc2O1)N1CCN(Cc2ccc3c(c2)OCO3)CC1` (configuration not stated) are over 10 µM and > 10 µM (inactive).
Taken in the same sequence, the figures for `Cc1ccc(OCC(O)CN2CCN(Cc3ccc4c(c3)OCO4)CC2)c(C)c1` (configuration not stated) were over 10 µM and > 10 µM (inactive).
The corresponding values for `CC(C)OC(=O)CSc1nnc(-c2ccc(Cl)cc2)n1N` are over 10 µM and > 10 µM (inactive).
Consider `CN1/C(=C/C2CC(=O)NC2=O)C(C)(C)c2ccccc21` (configuration not stated), for which the IC50 in experiment [1] is over 10 µM; in experiment [2] it was > 10 µM (inactive).
As for `CCCOc1ccccc1N/C(=N/c1nc(C)cc(C)n1)NC(=O)COc1ccc(OC)cc1`, the figures for the IC50 in experiment [1] and in experiment [2] were over 10 µM and > 10 µM (inactive), respectively.
Taken in the same sequence, the figures for `CCC(=O)N(CCO)Cc1cc2ccc(C)c(C)c2[nH]c1=O` were over 10 µM and > 10 µM (inactive).
For `Cc1ccc2cc(CN(CCO)Cc3nnnn3Cc3ccc(F)cc3)c(=O)[nH]c2c1`, the IC50 in experiment [1] was over 10 µM; in experiment [2] it was > 10 µM (inactive).
The corresponding values for `COC(=O)c1ccc(CSc2nnc(NC(C)C)s2)cc1` are over 10 µM and > 10 µM (inactive).
Taken in the same sequence, the figures for `Cc1cc([N+](=O)[O-])c(-c2ccc(/C=N/n3cnnc3)o2)cc1Cl` were 0.134 µM and 0.115 µM.
Taken in the same sequence, the figures for `Cc1nn(-c2ccccn2)c(C)c1Oc1ccccc1O` were over 10 µM and > 10 µM (inactive).
As for `O=C(Nc1cc(C(F)(F)F)ccc1-n1cncn1)c1ccc(-c2ccccc2)cc1`, the IC50 in experiment [1] was over 10 µM; in experiment [2], > 10 µM (inactive).
The corresponding values for `CCC(C)(C)n1nnnc1C(c1cc2cc3c(cc2[nH]c1=O)OCO3)N1CCN(C)CC1` (configuration not stated) are over 10 µM and > 10 µM (inactive).
The corresponding values for `O=C(NCc1ccc2c(c1)OCO2)C1CCCN1C(=O)Nc1ccccc1` (configuration not stated) are over 10 µM and > 10 µM (inactive).
As for `Cc1cccc(-c2c3c(=O)n(C)c(=O)n(C)c3cn2C2CCCCC2)c1`, the IC50 in experiment [1] is over 10 µM; in experiment [2], > 10 µM (inactive).
The corresponding values for `CCN(CC)c1ccc(-c2nc3cnccc3n2C)cc1` are over 10 µM and > 10 µM (inactive).
The corresponding values for `Cc1cc(N2C(=O)C3CCCN3C2c2sccc2C)no1` (configuration not stated) are over 10 µM and > 10 µM (inactive).
In the case of `CCC(C)c1ccc(OCCCCN2CCOCC2)cc1` (configuration not stated), the figures for the IC50 in experiment [1] and in experiment [2] were over 10 µM and > 10 µM (inactive), respectively.
The corresponding values for `CCOC(=O)c1c(NC(=O)CN2CCCCC2)sc2c1CCC(C=O)=C2Cl` are over 10 µM and > 10 µM (inactive).
Taken in the same sequence, the figures for `COc1ccc(/C=C2\SC(=S)N(NC(=O)c3csc4c3CCCC4)C2=O)cc1` were over 10 µM and > 10 µM (inactive).
The corresponding values for `NC(=O)c1ccsc1NC(=O)c1nc(-c2ccccc2)n(-c2ccccc2)n1` are over 10 µM and > 10 µM (inactive).
For `O=C(Nc1cccc(Cl)c1)N1CCN(C/C=C/c2ccccc2)CC1`, the IC50 in experiment [1] is over 10 µM; in experiment [2], > 10 µM (inactive).
The corresponding values for `CCOC(=O)c1c(CN2CCCCC2C)oc2ccc(OC)cc12` (configuration not stated) are over 10 µM and > 10 µM (inactive).
The corresponding values for `CCN(CC)CCCN(Cc1cc2cc3c(cc2[nH]c1=O)OCCO3)C(=O)Nc1ccc(F)cc1` are over 10 µM and > 10 µM (inactive).
On to `CCCCC1(CCCC)C(=O)NC(=Nc2cccc(C)c2)NC1=O`, for which the IC50 in experiment [1] is over 10 µM; in experiment [2] it was > 10 µM (inactive).
`O=C(Nc1ccccc1)C1=C(O)CC(c2ccco2)CC1=Nc1ccccc1` (configuration not stated): the IC50 in experiment [1] is over 10 µM; in experiment [2], > 10 µM (inactive).
The corresponding values for `O=C(OCn1ncc(Cl)c(Cl)c1=O)c1ccc(C(F)(F)F)cc1` are over 10 µM and > 10 µM (inactive).
With `COc1ccc(NC(=O)c2ccc(CN3CCN(c4ccccc4)CC3)cc2)cc1`, the IC50 in experiment [1] was over 10 µM; in experiment [2], > 10 µM (inactive).
The corresponding values for `COc1ccc(C2CC(=O)C3=C(C2)NC(C)=C(C(=O)Nc2ccccc2C)C3c2coc3ccc(C)cc3c2=O)cc1OC` (configuration not stated) are over 10 µM and > 10 µM (inactive).
As to `CCOC(=O)C1=C(CSc2nc(-c3ccccc3)ccc2C#N)OC(N)=C(C#N)C1c1cccnc1` (configuration not stated), the IC50 in experiment [1] is over 10 µM; in experiment [2], > 10 µM (inactive).
Consider `CCCCS(=O)(=O)/C=C\C=C/S(=O)(=O)CCCC`, for which the IC50 in experiment [1] was 13.9 µM; in experiment [2], 12.1 µM.
Consider `COc1cc(CN2CCN(c3ccc(C)cc3)CC2)cc([N+](=O)[O-])c1O`, for which the results for the IC50 in experiment [1] and in experiment [2] were over 10 µM and > 10 µM (inactive), respectively.
The corresponding values for `Cn1nnc2cc(C(=O)Nc3cccnc3)ccc21` are over 10 µM and > 10 µM (inactive).
The corresponding values for `COc1ccccc1N1CCN(C2CCN(C(=O)c3cc(OC)c(OC)c(OC)c3)CC2)CC1` are over 10 µM and > 10 µM (inactive).
As to `O=C(COc1ccc(Cl)cc1)Nc1ccc(N2CCN(C(=O)c3ccco3)CC2)cc1`, the IC50 in experiment [1] was over 10 µM; in experiment [2], > 10 µM (inactive).
With `CCOC(=O)Cc1c(C)c2ccc(N(CC)CC)cc2oc1=O`, the IC50 in experiment [1] was over 10 µM; in experiment [2] it was > 10 µM (inactive).
Regarding `CC1CCCN(CCOCCOc2ccc(Cl)cc2Br)C1` (configuration not stated), the IC50 in experiment [1] is over 10 µM; in experiment [2], > 10 µM (inactive).
The corresponding values for `CC(NC(=O)CSc1nc2c(cc1C#N)CN(C)CC2)c1ccccc1` (configuration not stated) are over 10 µM and > 10 µM (inactive).
Regarding `COc1cccc(NC(=O)C2CCCN2C(=O)OCc2ccccc2)c1` (configuration not stated), the figures for the IC50 in experiment [1] and in experiment [2] were over 10 µM and > 10 µM (inactive), respectively.
The corresponding values for `COc1ccc(C(=O)c2c(C(F)(F)F)oc3c2C(=O)c2ccccc2C3=O)cc1` are 2.32 µM and 1.99 µM.
Taken in the same sequence, the figures for `CCC(=O)c1ccc(N2CCN(C(=O)c3ccc(Br)cc3)CC2)c(F)c1` were over 10 µM and > 10 µM (inactive).
Taken in the same sequence, the figures for `CCOC(=O)N1CCN(c2ccc(S(=O)(=O)N(Cc3ccccc3)Cc3ccccc3)cn2)CC1` were over 10 µM and > 10 µM (inactive).
For the compound `Cc1cc(=O)oc2c(CN3CCCCC3)c(O)c(Cl)cc12`, the IC50 is over 10 µM in experiment [1] and > 10 µM (inactive) in experiment [2].
Taken in the same sequence, the figures for `CCn1c(SCC(=O)N2CCCc3ccccc32)nnc1-c1ccco1` were over 10 µM and > 10 µM (inactive).
Regarding `CS(=O)(=O)N1CCC(C(=O)NCCN2CCN(Cc3ccccc3)CC2)CC1`, the IC50 was over 10 µM in experiment [1] and > 10 µM (inactive) in experiment [2].
Taken in the same sequence, the figures for `Cc1sc(NC(=O)c2ccco2)c(C(c2cccnc2)N2CCC(C)CC2)c1C` (configuration not stated) were 5.77 µM and > 10 µM (inactive).
Consider `N#Cc1nc(COc2ccc(-c3ccccc3)cc2)oc1NCCCN1CCOCC1`, for which the IC50 in experiment [1] is 15.4 µM; in experiment [2], 21.4 µM (inactive).
With `O=C(Nc1nnc(-c2ccccc2)o1)c1ccc(Cl)cc1`, the figures for the IC50 in experiment [1] and in experiment [2] were 0.65 µM and 0.418 µM, respectively.
Taken in the same sequence, the figures for `c1ccc(COc2ccc(CN3CCN(c4ccccn4)CC3)cc2)cc1` were over 10 µM and > 10 µM (inactive).
Taken in the same sequence, the figures for `Cc1ccc(C(=O)NCc2occc2C(=O)O)o1` were over 10 µM and > 10 µM (inactive).
Taken in the same sequence, the figures for `CC1CCCCC1NC(=O)CSc1nnnn1-c1ccccc1` (configuration not stated) were over 10 µM and > 10 µM (inactive).
Take `O=C(NCc1ccco1)C(c1cccs1)N(C(=O)Cc1cccs1)c1ccccc1` (configuration not stated): the results for the IC50 in experiment [1] and in experiment [2] were over 10 µM and > 10 µM (inactive), respectively.
On to `O=C(c1ccc(Cl)cc1Cl)N1CCC(c2nc3c(nnn3Cc3ccco3)c(=O)[nH]2)CC1`, for which the IC50 is over 10 µM in experiment [1] and > 10 µM (inactive) in experiment [2].
As to `COc1ccc(N2CCN(c3oc(-c4ccco4)nc3C#N)CC2)cc1`, the IC50 in experiment [1] was over 10 µM; in experiment [2] it was > 10 µM (inactive).
The corresponding values for `O=C(Nc1nnc(-c2ccc3c(c2)CCCC3)o1)c1ccc(Cl)cc1Cl` are 3.46 µM and 1.18 µM.
Take `O=C(NCC(c1cccnc1)N1CCN(c2ccccc2)CC1)c1ccc2c(c1)OCO2` (configuration not stated): the IC50 in experiment [1] was over 10 µM; in experiment [2], > 10 µM (inactive).

In general, IC50 refers to the point on the concentration scale where inhibition reaches its midpoint.

Source of the values: PubChem BioAssay AID790 (SRMLSC, 2007).
